Assay results published in patent US20180051346A1, “METHODS AND MEANS FOR SUBTYPING INVASIVE LOBULAR BREAST CANCER” (Stichting Het Nederlands Kanker Instituut-Antoni van …, priority 2015, published 2018).

system: ILC cell lines; assay: Drug sensitivity on the Sanger cell line panel, differential response between IR and HR subtype cell lines; assay type: cell-based; conditions: IR subtype cell lines (10) vs HR subtype cell lines (5); two-sided t-test between the AUC of the dose-response curves; Sanger response data (Garnett et al., 2012)
Protocol: Drug sensitivity was assessed on the Sanger cell line panel (internal version 17). We used the cell lines common in our ILC cell line panel and in the Sanger cell line panel. We used cell line AU565 instead of SK-BR-3, which is derived from the same patient. Among the 262 drugs, we focused our assessment on 88 agents that had measurement in at least three cell lines per subtype. With this dataset, we performed a two-sided t-test between the AUC of the dose-response curves of the cell lines in the two subtypes, correcting for multiple testing with the Benjamini-Hochberg method.
To identify candidate therapeutic options, we profiled a set of 15 ILC cell lines as in vitro models. We used their gene expression profiles to map them to the IR (10 cell lines) and HR (5 cell lines). We then used the response data for 88 drugs on a subset of these cell lines, as provided by the Wellcome Trust Sanger Institute (Garnett et al., 2012. Nature 483: 570-575), to test for differential drug sensitivity between the subtypes. We retained six drugs at an FDR<0.25 (FIG. 2).

Row | Compound | differential drug sensitivity between the subtypes
1 | N.N.[Cl][Pt][Cl] [Cisplatin] | more sensitive
2 | CCc1c2c(nc3ccc(O)cc13)-c1cc3c(c(=O)n1C2)COC(=O)[C@]3(O)CC [SN-38, (+)-(4S)-4,11-diethyl-4,9-dihydroxy-1H-pyrano[3′,4′:6,7]-indolizino[1,2-b]quinoline-3,14(4H,12H)-dione] | more sensitive
3 | Bleomycin | more sensitive
